Drawing on BindingDB's records for doi:10.1016/j.bmc.2007.02.010 (Princeton University, 2007), this text covers Kd for one compound.

The structures appear in SMILES notation.

In the experiment the target is T1, E3 ubiquitin-protein ligase XIAP [241-356] (Homo sapiens, UniProt P98170).
T1 construct: 241-356
As to the kind of experiment: Competitive Fluorescent-binding Assay. As to conditions: pH 7; 22 °C. The procedure:
AVPC-badan can be displaced from the binding pocket of the protein by test compounds. As the dye is displaced from the binding pocket, the emission is reduced and resembles that of the AVPC-badan dye in solution alone. The AUC for the emission spectra of AVPC-badan alone, AVPC-badan, and for the Smac mimic bound to BIR3-XIAP are used to calculate a relative Kd for the Smac mimic. The relative Kd is then converted to an absolute Kd using the Kd value for AVPC-badan, which was determined in a titration assay.

T1 sequence (P98170 241-356): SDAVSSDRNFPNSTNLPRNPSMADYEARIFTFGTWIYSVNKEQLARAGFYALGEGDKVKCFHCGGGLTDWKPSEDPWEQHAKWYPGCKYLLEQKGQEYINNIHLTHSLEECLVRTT

`CC[C@@H](C)[C@H](NC(=O)[C@@H]1CCCN1C(=O)c1coc([C@H](C)N)n1)C(=O)O` [(2S,3R)-2-{[(2S)-1-({2-[(1S)-1-aminoethyl]-1,3-oxazol-4-yl}carbonyl)pyrrolidin-2-yl]formamido}-3-methylpentanoic acid] returned a Kd of 300 µM.

As a reminder, the Kd is the equilibrium constant for the complex coming apart. Read a low Kd as tighter binding.
